Assay results published in article PMC10945480 (Journal of Medicinal Chemistry, 2024).
Read-outs that look alike come from different tables or passages of the source.

Columns and labels:
[1] = test system: washed human platelets; test: U46619-induced platelet aggregation; type: cell-based; settings: for IC50: Platelet, washed human platelets, U46619 (1 μM)
Description: (§1) The antiplatelet effects of the JUG derivatives were evaluated by measuring human platelet aggregation, which can be regulated by cell surface PDI. Platelet aggregation was induced with platelet activators U46619 (a mimetic of thromboxane A2) and collagen (binding to GPVI).
(§2) Washed human platelets were prepared from acid citrate dextrose-anticoagulated blood of healthy human volunteers as described previously.[73] The study was approved by the Institutional Review Board of Kaohsiung Medical University, and informed consent was obtained from every volunteer. Platelet aggregation was measured by using a turbidimetric aggregometer (Chrono-Log Co., USA) under stirring conditions (1200 rpm) at 37 °C. The extent of platelet aggregation was measured as the maximal increase of light transmission after the addition of the stimulators U46619 and collagen.[73] In the TCIPA assay, platelet aggregation was induced by A549 (1 × 10^4 cells/mL), MDA-MB-231 (1 × 10^2 cells/mL), or RPMI8226 (1 × 10^5 cells/mL) cancer cells in the presence of 0.375% plasma.[74]

[2] = test system: washed human platelets; test: Collagen-induced platelet aggregation; type: cell-based; settings: for IC50: Platelet, washed human platelets, collagen (5 μg/mL)
Description: as §1, §2

[3] = Parallel artificial membrane permeability assay (PAMPA); settings: 50 μM, 3 h
Description: 1. Parallel artificial membrane permeability assay (PAMPA). […]
evolution instruments from pION Inc. In the PAMPA assay, a set of sandwich plates consists of a 96-well microtiter donor plate at the bottom and a 96-well filter acceptor plate on the top from […]
The stock solutions of samples were prepared at 10 mM concentrations in DMSO and stored at 0 ℃ before use. Before being added to a 96-well filter plate, the stock solution was diluted first with buffer to achieve a final sample concentration of 50 μM and to reduce the DMSO concentration below 1% (v/v). Each well of the 96-well donor plate was filled with a 200 μL diluted sample solution (50 μM), and the 96-well filter acceptor plate was then wetted with a 5 μL 2% w/v dioleyoylphosphatidylcholine (DOPC) in n-dodecane and subsequently placed on the donor wells.
Immediately, the acceptor wells were filled with 200 μL of buffer solution and the PAMPA plate sandwich was sealed and incubated at 25 ℃ for 3 h. After reaching the permeation time, the PAMPA plate sandwich was separated and transferred to 96-well UV plates respectively. The amounts of drugs in both the donor and acceptor compartments were measured by comparing the experimental spectra with the UV spectrum (220∼400 nm) obtained from reference standards.

[4] = test system: glioma U87; test: Cell viability, resazurin assay, U87; settings: Homo sapiens, 24 h, read-out: U87 IC50
Description: (§3) Cells were maintained in a humidified incubator at 37 °C in 5% CO2, and cell viability was determined with the resazurin assay (Cayman Chemical, USA) after the incubation with compounds for indicated concentrations and times or DMSO as control.[72]

[5] = test system: lung cancer A549; test: Cell viability, resazurin assay, A549; settings: for IC50: Homo sapiens, A549, 24 h, read-out: A549 IC50
Description: as §3

[6] = test system: multiple myeloma RPMI8226; test: Cell viability, resazurin assay, RPMI8226; settings: for IC50: Homo sapiens; for S.I. (EAhy926/RPMI8226), selectivity index: 24 h IC50 ratio
Description: as §3

[7] = test system: breast cancer MDA-MB-231; test: Cell viability, resazurin assay, MDA-MB-231; settings: for IC50: Homo sapiens, MDA-MB-231, 24 h, read-out: MDA-MB-231 IC50
Description: as §3

[8] = molecular target: purified human recombinant PDI (rPDI) (Homo sapiens, UniProt P07237); test: Recombinant PDI reductase activity (Di-E-GSSG assay); settings: read-out: rPDI IC50; human recombinant PDI, Di-E-GSSG, 5 μM DTT
Description: (§4) In this assay, a nonfluorescent substrate, dieosin glutathione disulfide (Di-E-GSSG), was reduced into a fluorescent product eosin-glutathione (E-GSH) by platelet surface PDI in the presence of 5 μM dithiothreitol (DTT).

[9] = molecular target: platelet surface PDI (Homo sapiens, UniProt P07237); test: Cell surface PDI reductase activity on intact human platelets (Di-E-GSSG assay); settings: read-out: Surface PDI IC50; intact human platelets, Di-E-GSSG, 5 μM DTT
Description: as §4

[10] = test system: human vascular endothelial EA.hy926 cells; test: Cell viability, resazurin assay, EA.hy926; settings: EA.hy 926, 24 h, read-out: EAhy926 IC50
Description: as §3

[11] = 25 ℃, verapamil = 100%, ranitidine = 0%
[12] = RPMI-8226, 24 h, read-out: RPMI8226 IC50
[13] = concentrations up to 40 μM, unpublished data

purified human recombinant PDI (rPDI), sequence (P07237 18-508): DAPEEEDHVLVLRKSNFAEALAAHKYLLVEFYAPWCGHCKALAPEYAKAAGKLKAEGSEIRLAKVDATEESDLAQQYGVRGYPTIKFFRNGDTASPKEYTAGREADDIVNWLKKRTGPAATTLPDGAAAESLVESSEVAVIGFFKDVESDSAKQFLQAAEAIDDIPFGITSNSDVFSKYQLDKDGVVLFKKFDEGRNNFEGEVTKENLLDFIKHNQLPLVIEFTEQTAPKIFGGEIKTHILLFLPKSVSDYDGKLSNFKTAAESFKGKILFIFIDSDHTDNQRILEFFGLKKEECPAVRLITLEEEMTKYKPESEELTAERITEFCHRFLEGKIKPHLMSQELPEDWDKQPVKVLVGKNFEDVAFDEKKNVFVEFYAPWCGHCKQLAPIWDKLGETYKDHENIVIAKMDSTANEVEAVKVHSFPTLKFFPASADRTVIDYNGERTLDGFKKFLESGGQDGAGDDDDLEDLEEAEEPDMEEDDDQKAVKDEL
platelet surface PDI, sequence (P07237 18-508): as above

IC50 [1]	IC50 [2]	Permeability (%) [3, 11]	IC50 [4]	IC50 [5]	IC50 [6, 12]	IC50 [7]	IC50 [8]	IC50 [9]	IC50 ([6]; RPMI-8226, 72 h, read-out: RPMI8226 IC50, 72 h)	Compound	S.I. (EAhy926/RPMI8226), selectivity index [6]	IC50 [10]	Permeability (%) [3]	effect on U46619-induced platelet aggregation [1, 13]	effect on collagen-induced platelet aggregation [2, 13]	effect on cell viability of A549 ([5]; unpublished data)	effect on cell viability of RPMI8226 ([6]; unpublished data)	effect on cell viability of MDA-MB-231 ([7]; unpublished data)
6.32 ± 0.3 µM	2.92 ± 0.77 µM	17.1%	> 20 µM	> 50 µM	4.33 ± 0.34 µM	> 20 µM	2.01 ± 0.55 µM	1.2 ± 0.31 µM		CC(C)(C)c1ccc(CSC2=CC(=O)c3cccc(O)c3C2=O)cc1 [Compound 20, 2-((4-(tert-Butyl)benzyl)thio)-8-hydroxynaphthalene-1,4-dione]	>4.6	> 20 µM						
> 20 µM	16 ± 2.11 µM	30.2%	> 20 µM	> 100 µM	> 20 µM	> 100 µM		> 20 µM		CN(C)C1=CC(=O)c2c(O)cccc2C1=O [Compound 24, 3-(Dimethylamino)-8-hydroxynaphthalene-1,4-dione]								
> 20 µM	> 20 µM	16.7%	> 20 µM	> 100 µM	> 20 µM	> 100 µM		> 20 µM		CN(C)C1=CC(=O)c2cccc(O)c2C1=O [Compound 23, 2-(Dimethylamino)-8-hydroxynaphthalene-1,4-dione]								
13.7 ± 0.89 µM	> 20 µM	1.08%	> 20 µM	> 20 µM	> 20 µM	> 100 µM		> 20 µM		COc1ccc(SC2=C(O)C(=O)c3c(O)cccc3C2=O)cc1 [Compound 27, 2,8-Dihydroxy-3-((4-methoxyphenyl)thio)naphthalene-1,4-dione]		> 20 µM						
> 20 µM	> 20 µM	5.17%	> 20 µM	> 100 µM	> 20 µM	> 100 µM		> 20 µM		O=C1C(O)=CC(=O)c2c(O)cccc21 [Compound 26, 3,8-Dihydroxynaphthalene-1,4-dione]								
> 20 µM	> 20 µM	5.21%	> 20 µM	> 100 µM	> 20 µM	> 100 µM		> 20 µM		O=C1C=C(O)C(=O)c2c(O)cccc21 [Compound 25, 2,8-Dihydroxynaphthalene-1,4-dione]								
			7.86 ± 1.23 µM	0.69 ± 0.2 µM	5.24 ± 0.79 µM	0.46 ± 0.01 µM			0.08 µM	CC(C)C[C@H](NC(=O)[C@H](Cc1ccccc1)NC(=O)c1cnccn1)B(O)O [bortezomib, reference compound]	0.017	0.09 ± 0.01 µM						
		0%								CNC(=C[N+](=O)[O-])NCCSCc1ccc(CN(C)C)o1 [Ranitidine, reference compound]								
> 20 µM	> 20 µM	9.28%	> 20 µM	> 100 µM	> 20 µM	> 100 µM		> 20 µM		COc1ccc(SC2=C(O)C(=O)c3cccc(O)c3C2=O)cc1 [Compound 28, 3,8-Dihydroxy-2-((4-methoxyphenyl)thio)naphthalene-1,4-dione]								

The remaining lines, values behind:

Compound	IC50 [1]	IC50 [2]	Permeability (%) [3, 11]	IC50 [4]	IC50 [5]	IC50 [6, 12]	IC50 [7]	IC50 [8]	IC50 [9]	IC50 ([6]; RPMI-8226, 72 h, read-out: RPMI8226 IC50, 72 h)	S.I. (EAhy926/RPMI8226), selectivity index [6]	IC50 [10]	Permeability (%) [3]	effect on U46619-induced platelet aggregation [1, 13]	effect on collagen-induced platelet aggregation [2, 13]	effect on cell viability of A549 ([5]; unpublished data)	effect on cell viability of RPMI8226 ([6]; unpublished data)	effect on cell viability of MDA-MB-231 ([7]; unpublished data)
O=C1C=C(SC[C@H]2OC(O)[C@H](O)[C@@H](O)[C@@H]2O)C(=O)c2c(O)cccc21 (mixture of isomers) [Compound 19, 2-(6-Deoxy-6-thio-D-glucose)-8-hydroxynaphthalene-1,4-dione]	> 50 µM	> 50 µM	-0.96%	> 20 µM	> 100 µM	> 20 µM	> 100 µM	3.7 ± 1.22 µM	1.17 ± 0.38 µM									
O=C1C=C(Sc2ccc(O)cc2)C(=O)c2c(O)cccc21 [Compound 14, 2-((4-Hydroxyphenyl)thio)-8-hydroxynaphthalene-1,4-dione]	1.3 ± 0.35 µM	0.75 ± 0.14 µM		6.4 ± 0.12 µM	16.1 ± 0.27 µM	0.58 ± 0.03 µM	6.92 ± 1.1 µM	1.5 ± 0.25 µM	0.77 ± 0.2 µM		9.8	5.69 ± 0.16 µM						
COc1cccc(SC2=CC(=O)c3cccc(O)c3C2=O)c1 [Compound 9, 2-((3-Methoxyphenyl)thio)-8-hydroxynaphthalene-1,4-dione]	1.6 ± 0.16 µM	0.38 ± 0.13 µM	38.9%	8.06 ± 0.48 µM	13.9 ± 0.53 µM	0.77 ± 0.05 µM	5.57 ± 0.7 µM	0.71 ± 0.04 µM	0.84 ± 0.06 µM		8.9	6.89 ± 0.12 µM						
COc1ccc(N2C(=O)/C(=C\c3ccc([N+](=O)[O-])s3)SC2=S)cc1 [CCF642, reference compound]				> 20 µM	13 ± 0.29 µM	8.77 ± 0.29 µM	6.42 ± 0.29 µM				0.64	5.57 ± 0.25 µM						
COc1ccc(SC2=CC(=O)c3cccc(O)c3C2=O)cc1OC [Compound 11, 2-((3,4-Dimethoxyphenyl)thio)-8-hydroxynaphthalene-1,4-dione]	2.43 ± 0.3 µM	1.58 ± 0.88 µM	2.7%	> 20 µM	12.4 ± 1.56 µM	2.26 ± 0.07 µM	38.9 ± 4.89 µM	14 ± 1.67 µM	1.28 ± 0.29 µM		>8.8	> 20 µM						
Cc1ccc(SC2=CC(=O)c3cccc(O)c3C2=O)cc1 [Compound 12, 2-(p-Tolylthio)-8-hydroxynaphthalene-1,4-dione]	1.82 ± 0.17 µM	0.76 ± 0.02 µM		> 20 µM	> 100 µM	3.83 ± 0.28 µM	25.2 ± 2.58 µM	3.45 ± 0.18 µM	1.84 ± 0.05 µM		>5.2	> 20 µM	0.1%					
COc1ccc(SC2=CC(=O)c3cccc(O)c3C2=O)cc1 [Compound 8, 2-((4-Methoxyphenyl)thio)-8-hydroxynaphthalene-1,4-dione]	1.52 ± 0.08 µM	0.29 ± 0.06 µM	80.43%	16.8 ± 0.62 µM	14.9 ± 0.43 µM	4.7 ± 0.08 µM	6.63 ± 0.93 µM	1.44 ± 0.08 µM	1.37 ± 0.23 µM		3.0	13.9 ± 1.17 µM						
CC(C)(C)CN(C(=O)CCl)C1CCS(=O)(=O)C1 (centres unmarked) [sulfopin, reference compound]														does not show any effect	does not show any effect	no significant impacts	no significant impacts	no significant impacts
COc1ccccc1SC1=CC(=O)c2cccc(O)c2C1=O [Compound 10, 2-((2-Methoxyphenyl)thio)-8-hydroxynaphthalene-1,4-dione]	2.66 ± 0.42 µM	0.71 ± 0.03 µM	28.4%	> 20 µM	17.3 ± 0.9 µM	> 20 µM	> 100 µM	1.34 ± 0.12 µM	0.79 ± 0.26 µM									
CCCCCSC1=CC(=O)c2cccc(O)c2C1=O [Compound 16, 2-(Pentylthio)-8-hydroxynaphthalene-1,4-dione]	7.13 ± 1.82 µM	2.57 ± 0.5 µM	91.9%	> 20 µM	> 50 µM	1.88 ± 0.08 µM	10.7 ± 1.26 µM		0.88 ± 0.12 µM		>10.6	> 20 µM						
